Measured values from patent US7425551B2, “Malonamide derivatives” (Hoffmann-La Roche Inc., priority 2006, dated 2008).
Values joined by “and” are separate entries in the source; they are usually repeats but may differ in a detail not shown here. Identical values can stand only once.

Tests used:
[1] = target: T1, γ-secretase (Homo sapiens, UniProt P49768); assay: in vitro assay of γ-secretase activity (HEK293 membrane fraction, recombinant APP substrate, Abeta ELISA); format: biochemical; details: γ-secretase inhibition; HEK293 membrane fraction solubilized in 0.25% CHAPSO, recombinant human APP C-terminal 100 amino acids substrate, Abeta detected by ELISA
T1 construct: uses a HEK293 membrane fraction as a source of γ-secretase; endogenous in cells; host or cells: HEK293 (microsomal membrane fraction, solubilised in 0.25% CHAPSO)
How it was run: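 The microsomal fraction of HEK293 cells was solubilized in 0.25% CHAPSO and incubated with a His-tagged C-terminal 100-residue human APP fragment expressed in E. coli. Abeta peptides produced by cleavage were quantified by specific ELISA.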

| IC50 [1] [nM] | Structure (SMILES) | melting point |
| --- | --- | --- |
| 10 | CC(O)(C(=O)NCCC(F)(F)F)C(=O)N[C@@H]1C(=O)N(CCO)c2ccccc2-c2ccccc21 (stereo partly drawn) [Example 64, 2-Hydroxy-N—[(S)-5-(2-hydroxy-ethyl)-6-oxo-6,7-dihydro-5H-dibenzo[b,d]azepin-7-yl]-2-methyl-N′-(3,3,3-trifluoro-propyl)-malonamide] | 61 to 69 °C and 59 to 62 °C and 64 to 71 °C |
| 12 | C[C@H](OC(=O)NCCC(F)(F)C(F)(F)F)C(=O)N[C@@H]1C(=O)N(CCO)c2ccccc2-c2ccccc21 [Example 38, (3,3,4,4,4-Pentafluoro-butyl)-carbamic acid (S)-1-[(S)-5-(2-hydroxy-ethyl)-6-oxo-6,7-dihydro-5H-dibenzo[b,d]azepin-7-ylcarbamoyl]-ethyl ester] | 181 to 184 °C |
